How the values were obtained:
[1] = Cytotoxicity assay, galactose-adapted HepG2 cells, Cell Titer Glo, 5 days; format: cell-based; details: human, galactose-adapted HepG2, five days incubation, intracellular ATP, read-out: CC50 GALHEPG2 CTG 5D
Text: (§1) To assess potential off-target toxicity of certain compounds disclosed herein, the in vitro cytotoxicity of those compounds was profiled using a panel of 5 cell lines with various tissue origins. Compound cytotoxicity was examined in hepatoma-derived Huh-7 and HepG2 cells, prostate carcinoma-derived PC-3 cells, lymphoma derived MT-4 cells and a normal diploid lung cell line MRC-5. HepG2 and PC-3 cells used were adapted to grow in glucose-free galactose-containing medium. These cells have a relatively higher sensitivity to inhibitors of mitochondrial oxidative phosphorylation compared to the same cells maintained in standard glucose-containing culture medium (Marroquin et al., Toxicol. Sci. 2007; 97 (2):539-47). Cell viability was determined by measuring intracellular ATP levels following five days of continuous incubation with test compounds.
(§2) The human hepatoma Huh-7 cell line was obtained from ReBLikon GmbH (Mainz, Germany) {20879}. The MT-4 cell line (HTLV-1 transformed, human T lymphoblastoid cells) was obtained from the NIH AIDS Reagent program (Bathesda, MD). The human hepatoblastoma cell line HepG2, human prostate carcinoma cell line PC-3, and normal fetal lung derived MRC-5 cells were obtained from the American Type Culture Collection (ATCC, Manassas, VA).
(§3) Huh-7 cells were maintained in Dulbecco's Modified Eagle Medium (DMEM) supplemented with 10% fetal bovine serum (FBS, Hyclone, Logan, UT), 1% non-essential amino acids (Gibco, Carlsbad, CA). PC-3 and HepG2 cells were adapted to grow in 0.2% galactose-containing, glucose-free Dulbecco's Modified Eagle Medium (DMEM) supplemented with 10% fetal bovine serum (FBS, Hyclone, Logan, UT), 1% non-essential amino acids (Gibco, Carlsbad, CA), 1% Pyruvate (Cellgro), 1% Glutamax (Invitrogen, Carlsbad, CA). Galactose-adapted cells were maintained in the same culture medium. MRC-5 cells were maintained in Eagle's Minimum Essential Medium (EMEM) supplemented with 10% fetal bovine serum (FBS, Hyclone, Logan, UT). MT-4 cells were maintained in RPMI-1640 supplemented with 10% fetal bovine serum (FBS, Hyclone, Logan, UT). All cell culture media were also supplemented with 100 Units/mL penicillin, 100 μg/mL streptomycin (Gibco).
(§4) Using a Biotek uFlow Workstation (Biotek, Winooski, VT), 1500 HepG2, 1500 PC-3, 500 Huh7 or 1500 MRC-5 cells in 90 μL of culture media were dispensed into each well of black polystyrene tissue culture-treated 384-well plates. Plated cells were incubated for 24 hours in an incubator at 37° C., 5% CO2 and 90% humidity. Compound serial dilutions were performed in 100% DMSO in 384-well polypropylene (high recovery) plates on a Biomek FX Workstation (Beckman Coulter, Fullerton, CA). After 3-fold serial dilutions, 0.4 μL of compounds were transferred into 384-well plates containing cells using a Velocity 11 system equipped with a Bravo 384-well pipettor. The DMSO concentration in the final assay plates was 0.44% (v/v). Cells were incubated with compound(s) for five days at 37° C. Puromycin (44 μM final concentration) and DMSO (0.44%, v/v) were used as a positive and negative controls, respectively
(§5) At the end of the incubation period the cytotoxicity assay was performed as follows: Media from 384-well cell culture plates were aspirated with a Biotek EL405 plate-washer (Biotek) and cells were washed with 100 μL PBS once. Twenty microliters of Cell Titer Glo (Promega, Madison, WI) was added to each well of the plates with a Biotek uFlow liquid dispenser. Plates were incubated for 15 minutes at room temperature before luminescence was measured with a Perkin Elmer Envision Plate Reader (Perkin Elmer, Waltham, MA).
(§6) CC50 values were defined as the compound concentration that caused a 50% decrease in luminescence signal, and were calculated by non-linear regression using Pipeline Pilot software by applying a four parameter fit equation (Accelrys, San Diego, CA). Individual CC50 values are listed as μM concentrations.

[2] = test system: TNFα; experiment: PBMC cytokine profiling assay, TNFα induction; format: cell-based; details: human PBMCs, 24 hours incubation
Method in brief: (§7)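 Cryopreserved healthy-donor human PBMCs (100k cells/well) were exposed for 24 h at 37 °C to a 10-point half-log compound series in 0.5% final DMSO. Secreted cytokines in the conditioned medium were quantified by MSD electrochemiluminescence, with TNFα samples diluted 1:9. AC50 was fitted by non-linear regression on percent activation normalised to plate controls.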

[3] = test system: IL12p40; experiment: PBMC cytokine profiling assay, IL12-p40 induction; format: cell-based; details: human PBMCs, 24 hours incubation
Method in brief: as §7

[4] = test system: Huh-7 cells; experiment: Cytotoxicity assay, Huh-7 cells, Cell Titer Glo, 5 days; format: cell-based, human; details: Huh-7, five days incubation, intracellular ATP; read-out: CC50 HUH7 CTG 5D
Text: as §1, §2, §3, §4, §5, §6

[5] = test system: MRC-5 cells; experiment: Cytotoxicity assay, MRC-5 cells, Cell Titer Glo, 5 days; format: cell-based, human; details: MRC-5, five days incubation, intracellular ATP; read-out: CC50 MRC5 CTG 5D
Text: as §1, §2, §3, §4, §5, §6

[6] = test system: IFNα; experiment: PBMC cytokine profiling assay, IFNα induction; format: cell-based; details: human PBMCs, 24 hours incubation
Method in brief: as §7

SMILES | CC50 at 5 days [1] [µM] | AC50 ([2]; Homo sapiens, PBMC, 24 h) [µM] | AC50 ([3]; Homo sapiens, PBMC, 24 h) [µM] | CC50 [4] [µM] | CC50 [5] [µM] | AC50 ([6]; Homo sapiens, PBMC, 24 h) [µM] | AC50 [2] [µM] | AC50 [3] [µM] | AC50 [6] [µM]
CCCC[C@H](CNC(C)=O)Nc1nc(N)nc2cccnc12 [Example 51, (R)—N-(2-((2-aminopyrido[3,2-d]pyrimidin-4-yl)amino)hexyl)acetamide] | 44.4 | 0.37 | 0.33 | 44.4 | 44.4 | > 200 | – | – | –
CCCC[C@@H](Nc1nc(N)nc2cc(F)cnc12)C(O)CF (stereo partly drawn) [Example 102, (3R)-3-((2-amino-7-fluoropyrido[3,2-d]pyrimidin-4-yl)amino)-1-fluoroheptan-2-ol] | – | 0.81 | 0.76 | 44.4 | 44.4 | > 50 | – | – | –
CCCC[C@@](C)(Nc1nc(N)nc2cc(F)cnc12)C(C)O (single isomer, unassigned) [Example 95] | – | – | – | – | 44.4 | – | 0.15 | 0.15 | > 50
CCCC[C@](C)(CNC(C)=O)Nc1nc(N)nc2cccnc12 [Example 61] | 44.4 | 0.02 | 0.02 | 44.4 | 44.4 | 42.1 | – | – | –
Nc1nc(NCCO)c2ncccc2n1 [Example 12, 2-((2-aminopyrido[3,2-d]pyrimidin-4-yl)amino)ethanol] | – | > 50 | > 50 | – | – | > 50 | – | – | –
CCC(F)(F)C[C@H](CO)Nc1nc(N)nc2cccnc12 [Example 79, (R)-2-((2-aminopyrido[3,2-d]pyrimidin-4-yl)amino)-4,4-difluorohexan-1-ol] | – | 9.1 | 11.5 | – | – | > 50 | – | – | –
CCCC[C@@H](Nc1nc(N)nc2cccnc12)[C@H](C)O [Example 86] | – | – | – | – | – | – | 2.9 | 2.4 | 37.4
CCCC[C@@H](CO)Nc1nc(N)nc2ccccc12 [Example 48, (S)-2-((2-aminoquinazolin-4-yl)amino)hexan-1-ol] | – | 0.85 | 0.71 | – | – | 0.57 | – | – | –
CC(F)CC[C@H](CO)Nc1nc(N)nc2cccnc12 (stereo partly drawn) [Example 73, (2R)-2-((2-aminopyrido[3,2-d]pyrimidin-4-yl)amino)-5-fluorohexan-1-ol] | – | 1.3 | 1.3 | – | – | > 50 | – | – | –
Nc1nc(N[C@H](CO)CC2CC2)c2ncccc2n1 [Example 4B, (S)-2-((2-aminopyrido[3,2-d]pyrimidin-4-yl)amino)-3-cyclopropylpropan-1-ol] | – | 9.1 | 5.4 | – | – | 5.9 | – | – | –
CCC[C@@H](CO)Nc1nc(N)nc2cc(F)c(C)nc12 [Example 67, (S)-2-((2-amino-7-fluoro-6-methylpyrido[3,2-d]pyrimidin-4-yl)amino)pentan-1-ol] | – | 6.3 | 3.9 | – | – | 23 | – | – | –
C=Cc1cnc2c(N[C@@H](CO)CCCC)nc(N)nc2c1 [Example 70, (R)-2-((2-amino-7-vinylpyrido[3,2-d]pyrimidin-4-yl)amino)hexan-1-ol] | – | 3.3 | 2.7 | – | – | > 50 | – | – | –
CCC[C@H](Nc1nc(N)nc2cccnc12)C(F)(F)F [Example 28, (S)—N^4-(1,1,1-trifluoropentan-2-yl)pyrido[3,2-d]pyrimidine-2,4-diamine] | – | 28.6 | 28.2 | – | – | 45 | – | – | –
CCCC[C@@](C)(Nc1nc(N)nc2cccnc12)C(C)O (single isomer, unassigned) [Example 96] | – | – | – | – | – | – | 1.1 | 1 | 2.8
CCC[C@@H](CO)Nc1nc(N)nc2c(C)ccnc12 [Example 26E, (S)-2-((2-amino-8-methylpyrido[3,2-d]pyrimidin-4-yl)amino)pentan-1-ol] | – | 2.3 | 1.7 | – | – | 13.5 | – | – | –
CCC[C@H](Nc1nc(N)nc2cccnc12)C(=O)NCCO [Example 34, (S)-2-((2-aminopyrido[3,2-d]pyrimidin-4-yl)amino)-N-(2-hydroxyethyl)pentanamide] | – | 12.2 | 10.9 | – | – | > 50 | – | – | –
CC[C@H](C)[C@@H](CO)Nc1nc(N)nc2cccnc12 [Example 9, (2S,3S)-2-((2-aminopyrido[3,2-d]pyrimidin-4-yl)amino)-3-methylpentan-1-ol] | – | 1.9 | 1.1 | – | – | 7.2 | – | – | –
CCCC[C@H](CO)Nc1nc(N)nc2cc(O)cnc12 [Example 68, (R)-2-amino-4-((1-hydroxyhexan-2-yl)amino)pyrido[3,2-d]pyrimidin-7-ol] | – | 11.1 | 14.2 | – | – | > 50 | – | – | –
COc1cnc2c(NC(C)(C)C)nc(N)nc2c1 [Example 113, N^4-(tert-butyl)-7-methoxypyrido[3,2-d]pyrimidine-2,4-diamine] | – | 12.5 | 13.6 | – | – | > 50 | – | – | –
CCCC[C@H](CCO)Nc1nc(N)nc2cccnc12 [Example 100, (R)-3-((2-aminopyrido[3,2-d]pyrimidin-4-yl)amino)heptan-1-ol] | – | 3.8 | 3.5 | – | – | 4.6 | – | – | –
CCCC[C@](C)(CNC(C)=O)Nc1nc(N)nc2cc(C)cnc12 [Example 66, (R)—N-(2-((2-amino-7-methylpyrido[3,2-d]pyrimidin-4-yl)amino)-2-methylhexyl)acetamide] | – | 0.04 | 0.03 | – | – | 1.6 | – | – | –
CCCC(C)Nc1nc(N)nc2cccnc12 (stereo not drawn) [Example 2B, N^4-(pentan-2-yl)pyrido[3,2-d]pyrimidine-2,4-diamine] | – | 5.4 | 2.8 | – | – | 4.3 | – | – | –
CCCC[C@](C)(CO)Nc1nc(N)nc2cc(N)cnc12 [Example 115, (R)-2-((2,7-diaminopyrido[3,2-d]pyrimidin-4-yl)amino)-2-methylhexan-1-ol] | – | 0.024 | 0.027 | – | – | 9 | – | – | –
CCCC[C@@H](Nc1nc(N)nc2cc(F)cnc12)[C@H](C)O [Example 87, (2S,3R)-3-((2-amino-7-fluoropyrido[3,2-d]pyrimidin-4-yl)amino)heptan-2-ol] | – | 5 | 4.5 | – | – | > 50 | – | – | –
CCC[C@@H](CO)Nc1nc(N)nc2cc(F)cnc12 [Example 43C, (S)-2-((2-amino-7-fluoropyrido[3,2-d]pyrimidin-4-yl)amino)pentan-1-ol] | – | 1.1 | 1 | – | – | 10.9 | – | – | –
C=CCC[C@](C)(CO)Nc1nc(N)nc2cc(F)cnc12 [Example 84, (R)-2-((2-amino-7-fluoropyrido[3,2-d]pyrimidin-4-yl)amino)-2-methylhex-5-en-1-ol] | – | 3 | 3.9 | – | – | > 50 | – | – | –
CCC[C@H](Nc1nc(N)nc2cccnc12)C(=O)NCc1ccccn1 [Example 37, (S)-2-((2-aminopyrido[3,2-d]pyrimidin-4-yl)amino)-N-(pyridin-2-ylmethyl)pentanamide] | – | > 50 | > 50 | – | – | > 50 | – | – | –

From patent publication US12377100B2 (GILEAD SCIENCES, INC., priority 2015, dated 2025)
